Read-outs that look alike come from different tables or passages of the source.

The EC50 is the concentration needed to bring the measured effect to its halfway point.

What all share (type): cell-based, human
In data set [1] the test system is MRC5 cells. The data set is described as follows: Cellular uptake and clearance (fluorescence microscopy). To be noted: MRC-5, 1 × 10^−5 M for 3 h, then drug removed. On the procedure: (§1) Cells were seeded at 30 000 cells well^−1 in chamber slides and allowed to adhere for 24 h. For the uptake studies, ADPM01 (1 × 10^−5 M) was then added to each chamber and incubated at 37°C in the dark. Following appropriate incubation periods (5 min–6 h), the cells were washed four times with media to remove all free photosensitisers. The cells were then fixed with 3.7% formaldehyde/PBS for 15 min at 37°C, after which the cells were washed twice with PBS. Mounting fluid (Vectashield) and a coverslip were then placed on each slide. […] In this case, the cells were fixed at various time points (15 min – 24 h) after removal of the drug. The slides were then viewed using an Axio fluorescent microscope (Zeiss). A DAPI filter (Band pass 356) was used to accurately count the number of cells in each field of view and a rhodamine filter (Long pass 590) was used to quantify fluorescence from ADPM01. LabWorks version 4.0 (Bioimaging Systems) was used to calculate the average fluorescence intensity of ADPM01 per cell.
(§2) Prism ([…]) was used to graph the data obtained from the MTT assays and the uptake/clearance experiments. This program allows nonlinear regression analysis and the generation of sigmoidal dose–response curves. Prism also automatically calculates EC50 values. Statistical analysis was performed using the ANOVA test (Prism). Significant differences were detected using the Bonferroni multiple comparison test. P-values <0.05 were considered statistically significant.

The test system of data set [2] is HeLa cells. Described as above. On the procedure: as §1, §2
Data set [3] has as its system HeLa cells. The experiment in a line: Flow cytometric assessment of apoptosis (Annexin-V/PI). On the procedure:
Evaluation of apoptotic and necrotic cell populations was achieved using the ApoTarget Annexin-V FITC Apoptosis kit (BioSource International, Inc.). Cells (2.0 × 10^5) were seeded into 25 cm^2 flasks and treated with either ADPM01 or ADPM06 at respective EC50 or 10-fold EC50 concentration levels for 3 h, followed by irradiation with red light at 16 J cm^−2, as described above. Subsequently, cells were incubated for 4 and 16 h, with floating and adherent cells being collected at each time point by centrifugation and then stained with Annexin-V and propidium iodide (PI) as per the manufacturer's instructions. The percentage of cells at different phases of cell death, namely nonapoptotic (Annexin-V^−/PI^−), early apoptotic (Annexin-V^+/PI^−), and necrotic or late-stage apoptotic (Annexin-V^+/PI^+), was quantified using a EPICS XL-MCL flow cytometer (Coulter) and analysed using System II software, with at least 5000 cells being analysed for each run.
On the technique in general: In flow cytometry, cells or beads pass a laser one at a time.

The test system of data set [4] is MRC5 cells. The data set is described as follows: MTT cell viability assay under hypoxic conditions (1% oxygen). To be noted: MRC5, hypoxia 1% oxygen; for EC50: Homo sapiens. As to the method: (§3) Cells were exposed to low oxygen conditions in a hypoxia chamber (Coy Labs). Exponentially growing cells plus media were equilibrated in the hypoxia chamber for 24 h. The hypoxia chamber consisted of an airtight glove box, with the atmosphere continuously monitored by an oxygen analyser. An oxygen concentration of 1% was maintained throughout the chamber, with the balance comprised of 5% CO2, nitrogen and water vapour from a humidified chamber.
(§4) Cells were seeded in 96-well flat-bottomed microtitre plates (5000 cells well^−1) and incubated at 37°C in a 5% CO2 incubator for 24 h. Cells were then incubated with varying concentrations of photosensitiser (1 × 10^−9 to 1 × 10^−4 M) in the dark for 3 h at 37°C. The ADPM compound-laden medium was then removed, the cells were washed with PBS and fresh culture medium was added to each well. This was followed by light irradiation with a broad-spectrum red light source (600–750 nm) via a Waldmann PDT1200L light delivery system. For this study, fluences (light exposures) of either 8 or 16 J cm^−2, at a dose rate of 80 mW cm^−2, were used. Following irradiation, the cells were incubated for a further 48 h before being assessed for cell viability by a standard MTT assay (Sigma). The subsequent colour change produced by viable cells was quantified using a plate reader (VICTOR^2 1420 multilabel HTS counter, Wallac). […] The dark toxicity of each compound was also assessed.
(§5) For cell viability experiments performed under hypoxic conditions, cells were cultured in a hypoxia chamber as described above. Varying concentrations of ADPM compounds were made using medium equilibrated within the hypoxic environment. After 3 h, the medium containing photosensitiser was removed, the cells were washed with PBS to remove excess compound and fresh, equilibrated medium was added to each well. This was followed by light irradiation under hypoxic conditions with the broad-spectrum red light source as before.
as §2
In general terms: Tetrazolium assays rely on reduction of a dye to a coloured formazan, in cell work by metabolically active cells.

For data set [5], the system named is HeLa cells. Described as above. To be noted: hypoxia 1% oxygen; for EC50: Homo sapiens. As to the method:
as §3, §4, §5, §2

Data set [6] concerns HeLa cells. The data set is described as follows: Subcellular localisation by confocal laser-scanning microscopy. To be noted: 1 × 10^−5 M, 1 h. As to the method:
Cells, grown on eight-well chamber slides (Nunc), were incubated in the dark at 37°C with 1 × 10^−5 M ADPM01 for 1 h. The medium was removed and the cells then treated with 250 nM MitoTracker Green (Molecular Probes) or 100 nM ER Tracker Blue (Molecular Probes) for 25 min. Prior to visualisation, excess probe was washed off by rinsing in PBS four times and cells were fixed in 3.7% formaldehyde/PBS. Cells were mounted as above and image analysis was performed using a LSM510 META confocal laser-scanning microscope (Zeiss) equipped with an × 40 numerical aperture 1.0 objective, with a pinhole of 100 μm in diameter being used to capture each image at a resolution of 512 × 512 pixels. MitoTracker Green was excited by a 488 nm argon laser and ER Tracker Blue was excited by a UV laser (364 nm), while ADPM01 was excited by a 543 nm helium neon laser. For simultaneous detection of MitoTracker Green and ADPM01, a 560 nm long pass filter was used in channel 1 (red) for ADPM01, while a 505–530 nm band pass filter was used in channel 2 (green) for MitoTracker Green. For dual detection of ER Tracker Blue and ADPM01, a long pass filter of 560 nm was used in channel 1 (red) for ADPM01 and a 385–470 nm band pass filter was used in channel 2 (blue) for ER Tracker Blue. […]

The mark [7] stands for this setting: 10-fold EC50 concentration, 16 h post-irradiation.
The mark [8] stands for this setting: EC50 concentration, 4 h post-irradiation.
Where [9] appears, read: 0 J cm^−2, read-out: EC50 (M) (dark).
The mark [10] stands for this setting: 8 J cm^−2, read-out: EC50 (M) (8 J cm^−2).
Where [11] appears, read: 16 J cm^−2, read-out: EC50 (M) (16 J cm^−2).

For the compound `F[B-]1(F)n2c(-c3ccccc3)cc(-c3ccccc3)c2N=C2C(c3ccccc3)=CC(c3ccccc3)=[N+]21` [ADPM01], the “retention 3 h post-withdrawal (clearance)” value in the data set with MRC5 cells [1] is given as 74%. In the data set on HeLa cells [2] (1 × 10^−5 M for 3 h, then drug removed), the “retention at 3 h post-withdrawal (clearance)” value was found to be 42%. For the same compound, the “cellular uptake, accumulated by 3 h” value in the data set on HeLa cells [2] (1 × 10^−5 M, 37°C in the dark, 6 h period) is greater than 90%. For the same compound, the “cells in lower left quadrant (Annexin-V−/PI−, nonapoptotic)” value in the data set with HeLa cells [3] (setting [7]) was determined as 42.5%; in the data set with HeLa cells [3] (setting [8]), 95.3%. For the same compound, the entries for the “cells in lower right quadrant (Annexin-V+/PI−, early apoptotic)” value in the data set on HeLa cells [3] (setting [7]) and in the data set with HeLa cells [3] (setting [8]) were 16.5% and 4.40%, respectively. Moreover, the entries for the “cells in upper left quadrant (PI+, Annexin-V−)” value with HeLa cells [3] (setting [7]) and in the data set with HeLa cells [3] (setting [8]) were 1.0% and 0.16%, respectively. Further, the figures for the “cells in upper right quadrant (Annexin-V+/PI+, necrotic or late-stage apoptotic)” value with HeLa cells [3] (setting [7]) and in the data set with HeLa cells [3] (setting [8]) were 40.0% and 0.12%, respectively. For the same compound, the EC50 in the data set with MRC5 cells [4] (setting [9]), in the data set on MRC5 cells [4] (setting [10]), with MRC5 cells [4] (setting [11]), with HeLa cells [5] (setting [9]), in the data set with HeLa cells [5] (setting [10]) and with HeLa cells [5] (setting [11]) was greater than 0.0001 M throughout. Also, the “efficacy (light-induced activity) at 1% oxygen level vs normoxia” value with MRC5 cells [4] and in the data set on HeLa cells [5] was “completely ablated” in each case. The “co-localisation with endoplasmic reticulum (ER Tracker Blue)” value with HeLa cells [6] was “more striking co-localisation”.
Regarding `COc1ccc(C2=[N+]3C(=Nc4c(-c5ccccc5)c(Br)c(-c5ccc(OC)cc5)n4[B-]3(F)F)C(c3ccccc3)=C2Br)cc1` [ADPM06], the “cells in lower left quadrant (Annexin-V−/PI−, nonapoptotic)” value is 42.3% in the data set with HeLa cells [3] (setting [7]) and 95.6% in the data set on HeLa cells [3] (setting [8]). For the same compound, the “cells in lower right quadrant (Annexin-V+/PI−, early apoptotic)” value is given as 34.1% in the data set with HeLa cells [3] (setting [7]) and 3.88% with HeLa cells [3] (setting [8]). Also, the “cells in upper left quadrant (PI+, Annexin-V−)” value in the data set with HeLa cells [3] (setting [7]) is recorded as 0.6%; in the data set on HeLa cells [3] (setting [8]) it was 0.20%. Besides, the “cells in upper right quadrant (Annexin-V+/PI+, necrotic or late-stage apoptotic)” value is reported as 23.0% with HeLa cells [3] (setting [7]) and 0.30% in the data set with HeLa cells [3] (setting [8]). For the same compound, the concentration giving a half-maximal response (EC50) is greater than 0.0001 M with MRC5 cells [4] (setting [9]); 7.1e-06 M in the data set on MRC5 cells [4] (setting [10]); 1.6e-06 M in the data set on MRC5 cells [4] (setting [11]); greater than 0.0001 M in the data set with HeLa cells [5] (setting [9]); 6.1e-06 M with HeLa cells [5] (setting [10]); 1.5e-06 M in the data set with HeLa cells [5] (setting [11]). Besides, the “efficacy (light-induced activity) at 1% oxygen level vs normoxia” value in the data set on MRC5 cells [4] and in the data set on HeLa cells [5] was “only a partial reduction in light-induced activity” throughout.

For the origin of these results see PMC2362044, “A potent nonporphyrin class of photodynamic therapeutic agent: cellular localisation, cytotoxic potential and influence of hypoxia” (British Journal of Cancer, 2005).
